Laboratory results as given in patent US11883680B2, “Method and apparatus for tightening skin and other tissues” (The General Hospital Corporation, priority 2016, dated 2024).

System: human skin
Assay: mechanical testing of skin sample sites with a tensiometer (elastic modulus, peak load)
Details: fully treated (full thickness needling + 0.1% Rose Bengal in saline + green light LED array) vs untreated and needled-only skin
Description: Additionally, mechanical testing was performed on sample sites using a tensiometer to measure elastic modulus before and after treatment. The elastic modulus and peak load were recorded on samples that were (1) untreated (2) partially treated (needled only), and (3) fully treated (needled plus agent application and irradiation). Full treatment included full thickness needling of the skin surface followed by application of a 0.1% solution of Rose Bengal in saline and irradiation with a multi-light-emitting LED diode array that delivered green light to the sample surface.

For O=C([O-])c1c(Cl)c(Cl)c(Cl)c(Cl)c1-c1c2cc(I)c(=O)c(I)c-2oc2c(I)c([O-])c(I)cc12.[Na+].[Na+] [Rose Bengal], the “increase in peak load” value was “three-fold” and the “increase in the elastic modulus” value was “five-fold”.
